Assay results published in patent publication US10662210B2, “Compositions and methods comprising osmium for the treatment of cancers” (Massachusetts Institute of Technology, priority 2014, dated 2020).

Legend:
pUC19 plasmid DNA = assay: Agarose gel electrophoresis of plasmid DNA; type: biochemical; settings: 24 h, 37° C.
Protocol: The osmium compounds were hypothesized to induce cell death through DNA interactions. Therefore, the interaction of 2 or 4 with pUC19 plasmid DNA was investigated using gel electrophoresis; the results of which are as shown in FIG. 6. As the concentration of 2 increased, there was a clear increase in the amount of nicked circular, and a concomitant decrease in the amount of supercoiled, plasmid DNA. At concentrations >250 μM, the bands in the gel smeared and then disappeared. […] The DNA binding kinetics of 2 and 4 were studied by measuring the amount of osmium bound to precipitated ct-DNA; the results of which are as shown in FIG. 7. The half-life of this reaction for 2 was 2 hours.
Plasmid DNA (pUC19) was kindly donated. The DNA binding ability of the osmium complexes was determined by monitoring the conversion of supercoiled plasmid DNA (form I) to nicked circular DNA (form II) using agarose gel electrophoresis. To probe the effect of Os-complex concentration, solutions containing […] of DNA and 0, 10, 20, 50, 100, 250, 500, and 1000 μM of the osmium complexes with a total reaction volume of 15 μL were incubated at 37° C. for 24 h. […] The DNA bands were analysed under UV light using a Flor-S reader (BioRad).

ER of A2780 cells = assay: Fluorescence microscopy of ER size (ER tracker Blue); type: cell-based, human; settings: 10 μM
Protocol: This finding led to the investigation of the possibility that 4 may induce endoplasmic reticulum (ER) stress. Co-administration of 4 and salubrinal (10 μM), a known ER stress inhibitor, reduced the cytotoxicity of 4 in A2780 cells. […] To further validate the ER as the main target for 4, the expression of proteins related to the unfolded protein response (UPR) was monitored. […] ER membrane expansion is widely associated with ER stress. With this fact in mind the ER size of A2780 cells upon incubation with 4 were examined using fluorescence microscopy. Relative to untreated controls (FIG. 3B), cells exposed to 4 (10 μM) for 4 h had 25.1% larger ER coverage (FIG. 3C). […]
A2780 cells (1×10^4) were incubated with and without 4 (10 μM) for 6 h. […] Fluorescence imaging experiments were performed using a Zeiss Axiovert 200M inverted epifluorscence microscope with a Hamamatsu EM-CCD digital camera C9100 and a MS200 XY Piezo Z stage (Applied Scientific Instruments, Inc.). […] The exposure time for acquisition of fluorescence images was kept constant for each series of images at each channel. The ER and whole cell size was quantified using ImageJ (version 1.45, NIH). The size of the whole cell was measured by tracing the outline of the cell membrane in the DIC view. The size of the ER was measured by tracing the outline of emission observed from ER tracker Blue in the DAPI (blue) channel. […]

HMLER CSC-depleted = assay: Cytotoxicity against CSC-depleted breast cancer cells; type: cell-based
From the text: (§1) Cancer relapse is strongly linked to the existence of CSCs. […] Conventional chemotherapy and radiotherapy are often ineffective against CSCs. Although current therapies effectively reduce tumor mass by destroying the bulk of cancer cells, they are unable to remove CSCs, which persist and generate new tumors, often of a far more aggressive nature. Therefore, in order to improve clinical outcomes, treatments must have the ability to kill the entirety of cancer cells, including CSCs. The osmium compound, described in Formula (I), wherein X^1, X^2, and X^3 were chloride ligands and the bidentate ligand was a 1,10-phenanthroline ligand, was able to kill breast cancer cells (HMLER) enriched with CSCs, 2.3-fold better than CSC-depleted breast cancer cells. […] The selectivity of the osmium compound can be seen in Table 2 as well as FIGS. 17A-B and 18.
(§2) The colorimetric MTT assay was used to determine the toxicity of the osmium complexes and cisplatin. Cells (2×10^3) were seeded in each well of a 96-well plate. After incubating the cells overnight, various concentrations of test compound (0.3-100 μM) were added and incubated for 72 h (total volume 200 μL). The test compounds were prepared as 10 mM solutions in DMSO and diluted using media. The final concentration of DMSO in each well was 0.5% and this amount was present in the untreated control as well. Cisplatin was prepared as a 5 mM solution in PBS and diluted further using media. After 72 h, the medium was removed, 200 μL of a 0.4 mg/mL solution of MTT in DMEM or RPMI was added, and the plate was incubated for an additional 1-2 h. The DMEM/MTT or RPMI/MTT mixture was aspirated and 200 μL of DMSO was added to dissolve the resulting purple formazan crystals. The absorbance of the solution wells was read at 550 nm. Absorbance values were normalized to DMSO-containing control wells and plotted as concentration of test compound versus % cell viability. IC50 values were interpolated from the resulting dose dependent curves. The reported IC50 values are the average from at least three independent experiments, each of which consisted of six replicates per concentration level.

[1] = Stability of 2 by UV-vis spectroscopy and variable temperature 1H NMR; type: physicochemical
From the text: The bidentate ligands used were 2,2′-bipyridine, 1,10-phenanthroline, 3,4,7,8-tetramethyl-1,10-phenanthroline, and 4,7-diphenyl-1,10-phenanthroline. The complexes were synthesized by reacting (Bu4N)[OsNCl4] with the appropriate ligand in acetone or dichloromethane. Characterization of 1-4 and the crystal structure of 4 are reported in Example 4. Prior to carrying out cellular studies, the stability of 2, taken as a representative member of the family, in phosphate buffered saline (PBS) and DMEM cell culture media was established by UV-vis spectroscopy. […] The water-octanol coefficient (log P) for each compound was also determined.

HMLER^tax CSC-enriched = assay: Cytotoxicity against CSC-enriched breast cancer cells; type: cell-based
From the text: as §1, §2

Row | Compound | effect on pUC19 DNA in gel electrophoresis (pUC19 plasmid DNA) | larger ER coverage relative to untreated controls (ER of A2780 cells; 4 h) | ER size relative to the whole cell (ER of A2780 cells; treated samples) | IC50 (HMLER CSC-depleted) | stability in phosphate buffered saline (PBS) and DMEM cell culture media ([1]; UV-vis spectroscopy) | thermal stability ([1]; variable temperature 1H NMR spectroscopy) | IC50 (HMLER^tax CSC-enriched) | HMLER^tax selectivity (HMLER^tax CSC-enriched; CSC-enriched vs CSC-depleted)
1 | [N]#[Os]1([Cl])([Cl])([Cl])[N]2C=CC(c3ccccc3)=c3ccc4c(c32)[N]1C=CC=4c1ccccc1 [Complex 4, OsN(4,7-diphenyl-1,10-phenanthroline)Cl3] | no visible effect | 25.1% | about 55% | – | – | – | – | –
2 | [N]#[Os]1([Cl])([Cl])([Cl])[N]2C=CC=c3ccc4c(c32)[N]1C=CC=4 [Complex 2, OsN(1,10-phenanthroline)Cl3] | induced conformational changes and degradation of circular DNA | – | – | 11.2 µM | established | demonstrated | 4.91 µM | 2.31
